In the NIST ThermoML archive (doi:10.1021/acs.jced.6b00718):

Assay: xn = mol fraction of the nth substance listed
Conditions: Liquid; for electrical conductivity: 100 kPa, Alternating current cell with electrodes, x2 = 0.2589; for viscosity / mass density: 101 kPa; for viscosity: Falling or rolling sphere viscometry; for mass density: Vibrating tube method

N#CCCCC#N [pentanedinitrile] + CCCC[N+]1(C)CCCC1.O=S(=O)([N-]S(=O)(=O)C(F)(F)F)C(F)(F)F
Conditions | electrical conductivity [S/m]
292.9 K | 0.572
297.4 K | 0.651
304.3 K | 0.782
314.5 K | 1
323.2 K | 1.21
336 K | 1.55

Conditions | mass density [kg/m3] | viscosity [mPa·s]
293.15 K, x2 = 0 | 987 | 6.97
293.15 K, x2 = 0.1003 | 1094.2 | 9.92
293.15 K, x2 = 0.1997 | 1167.5 | 13.34
293.15 K, x2 = 0.2999 | 1222.5 | 17.57
293.15 K, x2 = 0.4002 | 1266.7 | 22.88
293.15 K, x2 = 0.5006 | 1300.5 | 28.92
293.15 K, x2 = 0.6003 | 1327.5 | 38.47
293.15 K, x2 = 0.6998 | 1349.1 | 48.33
293.15 K, x2 = 0.8004 | 1368.5 | 61.37
293.15 K, x2 = 0.9002 | 1385.4 | 78.19
298.15 K, x2 = 0 | 983.1 | 6.12
298.15 K, x2 = 0.1003 | 1090.3 | 8.55
298.15 K, x2 = 0.1997 | 1163.3 | 11.42
298.15 K, x2 = 0.2999 | 1218.1 | 14.81
298.15 K, x2 = 0.4002 | 1262.2 | 19.17
298.15 K, x2 = 0.5006 | 1296.1 | 23.95
298.15 K, x2 = 0.6003 | 1323.1 | 31.5
298.15 K, x2 = 0.6998 | 1344.8 | 39.56
298.15 K, x2 = 0.8004 | 1364.3 | 49.4
298.15 K, x2 = 0.9002 | 1380.9 | 62.15
303.15 K, x2 = 0 | 979.1 | 5.39
303.15 K, x2 = 0.1003 | 1086.2 | 7.42
303.15 K, x2 = 0.1997 | 1159 | 9.83
303.15 K, x2 = 0.2999 | 1213.8 | 12.69
303.15 K, x2 = 0.4002 | 1257.9 | 16.22
303.15 K, x2 = 0.5006 | 1291.7 | 20.1
303.15 K, x2 = 0.6003 | 1318.6 | 26.13
303.15 K, x2 = 0.6998 | 1340.3 | 32.56
303.15 K, x2 = 0.8004 | 1359.8 | 40.38
303.15 K, x2 = 0.9002 | 1376.4 | 50.27
313.15 K, x2 = 0 | 971.2 | 4.25
313.15 K, x2 = 0.1003 | 1077.9 | 5.78
313.15 K, x2 = 0.1997 | 1150.5 | 7.46
313.15 K, x2 = 0.2999 | 1205.1 | 9.52
313.15 K, x2 = 0.4002 | 1249 | 11.97
313.15 K, x2 = 0.5006 | 1282.8 | 14.66
313.15 K, x2 = 0.6003 | 1309.7 | 18.67
313.15 K, x2 = 0.6998 | 1331.3 | 22.97
313.15 K, x2 = 0.8004 | 1350.8 | 28.01
313.15 K, x2 = 0.9002 | 1367.2 | 34.37
323.15 K, x2 = 0 | 963.4 | 3.47
323.15 K, x2 = 0.1003 | 1069.7 | 4.6
323.15 K, x2 = 0.1997 | 1142 | 5.84
323.15 K, x2 = 0.2999 | 1196.5 | 7.39
323.15 K, x2 = 0.4002 | 1240.3 | 9.16
323.15 K, x2 = 0.5006 | 1274 | 11.11
323.15 K, x2 = 0.6003 | 1300.9 | 13.88
323.15 K, x2 = 0.6998 | 1322.5 | 16.93
323.15 K, x2 = 0.8004 | 1342 | 18.72
323.15 K, x2 = 0.9002 | 1358.2 | 24.65
333.15 K, x2 = 0 | 955.6 | 2.88
333.15 K, x2 = 0.1003 | 1061.5 | 3.72
333.15 K, x2 = 0.1997 | 1133.7 | 4.71
333.15 K, x2 = 0.2999 | 1188 | 5.85
333.15 K, x2 = 0.4002 | 1231.7 | 7.27
333.15 K, x2 = 0.5006 | 1265.2 | 8.67
333.15 K, x2 = 0.6003 | 1291.9 | 10.69
333.15 K, x2 = 0.6998 | 1313.8 | 13.01
333.15 K, x2 = 0.8004 | 1333 | 14.2
333.15 K, x2 = 0.9002 | – | 18.39
